Molecules are shown by their SMILES.

The values that follow come from US20260216183A1 (SHENZHEN NEWDEL BIOTECH CO., LTD., priority 2023, published 2026).

A short description of data set [1]: Mouse body weight change in the oral administration experiment. Type of data set: in vivo, Balb/c mice. To be noted: 17 mpk p.o. once daily 22 days; vs group 2 (vehicle). How it is done: (§1) (1) Screening and grouping: 60 female 6- to 8-week-old Balb/c mice in total were used as experimental animals in this project, which were obtained from Shanghai Model Organisms Center, Inc. The first grouping was done before the start of the experiment. […] (2) Animal modeling: The day when the first grouping was done was designated as day (−7). The backs of the mice were depilated with depilatory cream (area of about 2 cm×3 cm). […] The 1% OXA solution was prepared by weighing 0.1 g of OXA powder, adding 10 mL of an acetone solution, mixing well, and dissolving. […] (3) The administration mode of the test substance: […] The mice were sacrificed on day 21. The skin of the right ear of the mice was left for pathological examination. The thickness of the epidermal layer and inflammatory cell infiltration were measured by H&E staining, and the thickness of the dermis layer was measured by Masson staining.

Data set [2] relates to OXA-induced atopic dermatitis mouse model. The data set is described as follows: OXA-induced atopic dermatitis mouse model, oral administration. Type of data set: in vivo, Balb/c mice. To be noted: for Pinna thickness change rate at time point, Significance level: 17 mpk p.o. once daily. On the procedure:
as §1

[3] abbreviates: 17 mpk p.o. once daily 22 days, vs group 2 (vehicle).

Turning to `CCCS(=O)(=O)N[C@H]1C[C@@H](N(C)c2ncnc3[nH]ccc23)C1` [Abrocitinib, reference compound], the “Rate of change in body weight, Significance level” value in data set [1] is on record as “ns (p>0.05)”. In addition, the “Inflammatory cell content in right ear tissue, Significance level” value in data set [2] (17 mpk p.o. once daily 22 days, compared to G2 (vehicle)) is “* (*p<0.05)”. Also, the “Clinical scores of dorsal skin, Significance level” value in data set [2] (setting [3]) was “* (*p<0.05)”. Further, the “Rate of change in the thickness of the pinna of the right ear, Significance level” value in data set [2] (setting [3]) is “**** (****p<0.0001)”. The “Thickness of dermis layer of right ear, Significance level” value in data set [2] (setting [3]) was “*** (***p<0.001)”. Besides, in data set [2] (setting [3]), the “Thickness of epidermal layer of right ear, Significance level” value is reported as “ns (p>0.05)”. In addition, the “Pinna thickness change rate at time point, Significance level” value in data set [2] (day 3, vs group 2 (vehicle)) is reported as “ns (p>0.05)”; in data set [2] (day 5, vs group 2 (vehicle)) it was “ns (p>0.05)”; in data set [2] (day 7, vs group 2 (vehicle)), “ns (p>0.05)”; in data set [2] (day 10, vs group 2 (vehicle)), “** (**p<0.01)”; in data set [2] (day 12, vs group 2 (vehicle)), “* (*p<0.05)”; in data set [2] (day 14, vs group 2 (vehicle)) it was “** (**p<0.01)”. The “Pinna thickness change rate at time point, Significance level” value in data set [2] (day 17, vs group 2 (vehicle)) is given as “ns (p>0.05)”; in data set [2] (day 19, vs group 2 (vehicle)), “** (**p<0.01)”; in data set [2] (day 21, vs group 2 (vehicle)), “* (*p<0.05)”. In data set [2] (right ear tissue, 17 mpk p.o. once daily 22 days, Mean ± SEM), the “Number of inflammatory cells per mm” value is 236 ± 26.59 cells per mm.
